Assay results taken from patent US20030044399A1, “Method of treatment” (SmithKline Beecham Corporation, priority 1998, published 2003).

Molecular target: Cruzain (Trypanosoma cruzi, UniProt P25779)
Test: Cysteine protease inhibition, progress curve method, cruzain
Format: biochemical
Settings: 4 uM Ac-Lys-Glu-Lys-Leu-Arg-AMC, 100 mM Na acetate pH 5.5, 5 mM cysteine; read-out: Cruzain Ki
Protocol: (§1) Standard assay conditions for the determination of kinetic constants used 10 uM fluorogenic peptide substrate, Cbz-Phe-Arg-AMC for the cysteine proteases from Leishmania spp and Schistosoma Mansoni, Cbz-Leu-Arg-AMC for the cysteine proteases from Plasmodium falciparum and Trypanosoma brucei rhodesiensi, and Ac-Lys-Glu-Lys-Leu-Arg-AMC (4 uM final substrate concentration) for the cysteine protease from Trypoanosoma cruzi, and were determined in 100 mM Na acetate at pH 5.5 containing 5 mM cysteine. Stock substrate solutions were prepared at concentrations of […] in DMSO with 10 uM (4 uM for Ac-Lys-Glu-Lys-Leu-Arg-AMC) final substrate concentration in the assays. The final DMSO concentration was 2% and the final volume was 100 uL. All assays were conducted at ambient temperature. Product progress curves were generated over 20 to 30 minutes following formation of AMC product.
(§2) Potential inhibitors were evaluated using the progress curve method. Assays were carried out in the presence of variable concentrations of test compound. Reactions were initiated by addition of enzyme to buffered solutions of inhibitor and substrate. Data analysis was conducted according to one of two procedures depending on the appearance of the progress curves in the presence of inhibitors. For those compounds whose progress curves were linear, apparent inhibition constants (Ki,app) were calculated according to equation 1 (Brandt et al., Biochemitsry, 1989, 28, 140):
(§3) v=VmA/[Ka(1+I/Ki,app)+A] (1)
(§4) Where v is the velocity of the reaction with maximal velocity Vm, A is the concentration of substrate with Michaelis constant of Ka, and I is the concentration of inhibitor.
(§5) [AMC]=vsst+(v0−vss)[1−exp (−kobst)]/kobs (2)
(§6) Where [AMC] is the concentration of product formed over time t, v0 is the initial reaction velocity and vss is the final steady state rate. Values for kobs were then analyzed as a linear function of inhibitor concentration to generate an apparent second order rate constant (kobs/inhibitor concentration or kobs/[I]) describing the time-dependent inhibition. A complete discussion of this kinetic treatment has been fully described (Morrison et al., Adv. Enzymol. Relat. Areas Mol. Biol., 1988, 61, 201).
(§7) Exemplary inhibition data for the compounds used in the present method collected in accordance with the above-described procedure are listed in Table I.

Chain of Cruzain (P25779 123-337): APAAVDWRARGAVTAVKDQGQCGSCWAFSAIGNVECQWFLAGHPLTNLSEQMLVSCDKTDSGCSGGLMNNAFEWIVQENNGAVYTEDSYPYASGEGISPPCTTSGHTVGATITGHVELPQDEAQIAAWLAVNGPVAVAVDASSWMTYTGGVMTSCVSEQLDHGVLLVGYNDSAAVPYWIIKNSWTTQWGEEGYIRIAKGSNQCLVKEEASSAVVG

Compound	Ki [nM]
CC(C)C[C@@H](NC(=O)c1cc(Br)c(Br)s1)C(=O)N[C@@H]1CCCN(S(=O)(=O)c2cccc[n+]2[O-])CC1=O [Example 61, 4,5-Dibromo-thiophene-2-carboxylic acid {(S)-3-methyl-1-[3-oxo-1-(1-oxy-pyridine-2-sulfonyl)-azepan-4-ylcarbamoyl]-butyl}amide]	40
CC(C)C[C@@H](NC(=O)c1cc2cc(OCCN3CCCC3)ccc2o1)C(=O)N[C@@H]1CCCN(S(=O)(=O)c2ccccc2)CC1=O (stereo in doubt) [Example 8, 5-(2-Pyrrolidin-1-yl-ethoxy)-benzofuran-2-carboxylic acid [(S)-1-(1-benzenesulfonyl-3-oxo-azepan-4-ylcarbamoyl)-3-methyl-butyl]amide]	8
CC(C)C[C@H](NC(=O)c1ccc2ccccc2n1)C(=O)NC1CCCN(Cc2ccccc2)CC1=O (stereo partly drawn) [Example 2, Quinoline-2-carboxylic acid [(S)-1-(1-benzyl-3-oxo-azepan-4-ylcarbamoyl)-3-methyl-butyl]amide]	44
CC(C)C[C@@H](NC(=O)c1cc2ccccc2[nH]1)C(=O)N[C@@H]1CCCN(S(=O)(=O)c2ccccc2)CC1=O (stereo in doubt) [Example 11, 1H-Indole-2-carboxylic acid [(S)-1-(1-benzenesulfonyl-3-oxo-azepan-4-ylcarbamoyl)-3-methyl-butyl]amide]	100
CC(C)C[C@@H](NC(=O)c1cc2cc(OCCN3CCOCC3)ccc2o1)C(=O)N[C@@H]1CCCN(S(=O)(=O)c2ccccc2)CC1=O (single isomer, unassigned) [Example 7]	23
CC(C)C[C@@H](NC(=O)COc1ccc(F)cc1)C(=O)N[C@@H]1CCCN(S(=O)(=O)c2ccccn2)CC1=O (stereo in doubt) [Example 37, (S)-2-[2-(4-Fluoro-phenoxy)-acetylamino]-4-methyl-pentanoic acid [3-oxo-(pyridine-2-sulfonyl)-azepan-4-yl]-amide]	33
CC(C)C[C@@H](NC(=O)c1cc2ccccc2cn1)C(=O)N[C@@H]1CCCN(S(=O)(=O)c2ccccn2)CC1=O (stereo in doubt) [Example 28, Isoquinoline-3-carboxylic acid {(S)-3-methyl-1-[3-oxo-1-(pyridine-2-sulfonyl)-azepan-4-ylcarbamoyl]-butyl}amide]	24
CC(C)C[C@H](NC(=O)c1cnc2ccccc2n1)C(=O)N[C@@H]1CCCN(S(=O)(=O)c2cccs2)CC1=O [Example 147, Quinoxaline-2-carboxylic acid-{(S)-3-methyl-1-[3-oxo-1-(thiophene-2-sulfonyl)-azepan-4-ylcarbamoyl]-butyl}-amide]	7.5
COc1ccc(S(=O)(=O)N2CCCC(NC(=O)C(CC(C)C)NC(=O)c3cc4ccccc4o3)C(=O)C2)cc1 (stereo in doubt) [Example 74, Benzofuran-2-carboxylic acid {(S)-1-[1-(4-methoxy-benzenesulfonyl)-3-oxo-azepan-4-ylcarbamoyl]-3-methyl-butyl}-amide]	24
CC(C)C[C@@H](NC(=O)c1cc2cc(OCCN3CCCC3)ccc2o1)C(=O)NC1CCCN(S(=O)(=O)c2ccccc2)CC1=O (single isomer, unassigned) [Example 13]	32
COc1ccc(S(=O)(=O)N2CCC[C@H](NC(=O)[C@H](CC(C)C)NC(=O)CNC(=O)c3ccco3)C(=O)C2)cc1 [Example 82]	17
4-[2-(2-{(S)-3-Methyl-1[3-oxo-1-(pridine-2-sulfonyl)-azepan-4-ylcarbamoyl]-butylcarbamoyl}-benzofuran-5-yloxy)-ethyl]-piperazine-1-carboxylic acid tert-butyl ester [Example 22]	14
CC(C)C[C@H](NC(=O)c1ccc2c(c1)OCO2)C(=O)N[C@H]1CCCN(Cc2ccccc2)CC1=O [Example 1, benzo[1,3]dioxole-5-carboxylic acid [(S)-1-(1-benzyl-3-oxoazepan-4-ylcarbamoyl)-3-methyl-butyl]amide]	58
CC(C)C[C@@H](NC(=O)c1ccc2ccccc2n1)C(=O)N[C@@H]1CCCN(S(=O)(=O)c2ccccn2)CC1=O (stereo in doubt) [Example 24, Quinoline-2-carboxylic acid {(S)-3-methyl-1-[3-oxo-1-(pyridine-2-sulfonyl)-azepan-4-ylcarbamoyl]-butyl}amide]	23
Cc1ccc(C(=O)N[C@H](CC(C)C)C(=O)N[C@@H]2CCCN(S(=O)(=O)c3cccc[n+]3[O-])CC2=O)cn1 [Example 118]	18
CC(C)C[C@@H](NC(=O)c1cc2cc(OCCN3CCOCC3)ccc2o1)C(=O)N[C@@H]1CCCN(S(=O)(=O)c2ccccn2)CC1=O (single isomer, unassigned) [Example 20]	8
CC(C)C[C@@H](NC(=O)c1cc2cc(OCCN3CCOCC3)ccc2o1)C(=O)N[C@@H]1CCCN(S(=O)(=O)c2ccccc2)CC1=O (stereo in doubt) [Example 6, 5-(2-Morpholin-4-yl-ethoxy)-benzofuran-2-carboxylic acid [(S)-1-(1-benzenesulfonyl-3-oxo-azepan-4-ylcarbamoyl)-3-methyl-butyl]amide]	21
COc1ccc2oc(C(=O)N[C@H](CC(C)C)C(=O)N[C@@H]3CCCN(S(=O)(=O)c4ccccn4)CC3=O)cc2c1 (stereo in doubt) [Example 33, 5-Methoxy-benzofuran-2-carboxylic acid {(S)-3-methyl-1-[3-oxo-1-(pyridine-2-sulfonyl)-azepan-4-ylcarbamoyl]-butyl}amide]	14
CC(C)C[C@@H](NC(=O)c1cc2ccccc2[nH]1)C(=O)N[C@@H]1CCCN(S(=O)(=O)c2ccccn2)CC1=O (stereo in doubt) [Example 32, 1H-Indole-2-carboxylic acid {(S)-3-methyl-1-[3-oxo-1-(pyridine-2-sulfonyl)-azepan-4-ylcarbamoyl]-butyl}amide]	17
Cc1cccc(S(=O)(=O)N2CCC[C@@H](NC(=O)[C@@H](CC(C)C)NC(=O)c3cc4ccccc4o3)C(=O)C2)n1 (stereo in doubt) [Example 172, Benzofuran-2-carboxylic acid {(S)-3-methyl-1-[1-(6-methyl-pyridine-2-sulfonyl)-3-oxo-azepan-4-ylcarbamoyl]-butyl}amide]	7.4
CC(C)C[C@@H](NC(=O)c1cc2cc(OCCN3CCOCC3)ccc2o1)C(=O)N[C@@H]1CCCN(S(=O)(=O)c2ccccn2)CC1=O (single isomer, unassigned) [Example 19]	2
CC(C)CC(NC(=O)c1cc2ccccc2o1)C(=O)N[C@@H]1CCCN(S(=O)(=O)c2ccccc2C#N)CC1=O (stereo partly drawn) [Example 115]	14

Same assay, conditions: Cruzain Ki nM, 4 uM Ac-Lys-Glu-Lys-Leu-Arg-AMC, 100 mM Na acetate pH 5.5, 5 mM cysteine

Compound	Ki [nM]
Cc1c(C(=O)NC(CC(C)C)C(=O)NC2CCCN(S(=O)(=O)c3cccc[n+]3[O-])CC2=O)oc2ccc3ccccc3c12 [Example 210, 1-methyl-naphtho[2,1-b]-furan-2-carboxylic acid {(S)-3-methyl-1-[3oxo-1-(1-oxy-pyridine-2-sulfonyl)-azepan-4-ylcarbamoyl]-butyl}-amide]	6.6

Molecular target: Rhodazain (Trypanosoma brucei rhodesiense, UniProt Q95PM0)
Sequence (Q95PM0 entry or part of it): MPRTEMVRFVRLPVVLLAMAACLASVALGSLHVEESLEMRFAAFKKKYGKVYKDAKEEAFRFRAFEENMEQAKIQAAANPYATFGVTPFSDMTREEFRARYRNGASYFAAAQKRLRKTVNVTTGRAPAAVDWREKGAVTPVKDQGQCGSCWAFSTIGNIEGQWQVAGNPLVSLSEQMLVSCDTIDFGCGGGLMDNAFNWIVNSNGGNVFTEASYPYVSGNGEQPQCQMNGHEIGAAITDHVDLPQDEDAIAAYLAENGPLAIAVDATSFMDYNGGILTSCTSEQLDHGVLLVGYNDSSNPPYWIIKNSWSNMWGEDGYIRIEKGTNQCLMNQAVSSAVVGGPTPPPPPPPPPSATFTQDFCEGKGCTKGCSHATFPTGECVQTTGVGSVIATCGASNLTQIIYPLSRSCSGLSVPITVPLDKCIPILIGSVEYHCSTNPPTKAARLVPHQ
Test: Cysteine protease inhibition, progress curve method, rhodazain
Format: biochemical, Trypanosoma brucei rhodesiensi
Settings: Rhodazain Ki (nM), 10 uM Cbz-Leu-Arg-AMC, 100 mM Na acetate pH 5.5, 5 mM cysteine
Protocol: as §1, §2, §3, §4, §5, §6, §7

Compound	Ki [nM]
O=C(N[C@H](CC1CCCCC1)C(=O)N[C@@H]1CCCN(S(=O)(=O)c2ccccn2)CC1=O)c1cc2ccccc2o1 (stereo in doubt) [Example 102, Benzofuran-2-carboxylic acid {(S)-2-cyclohexyl-1-[3-oxo-1-(pyridine-2-sulfonyl)-azepan-4-ylcarbamoyl]-ethyl}-amide]	3.7
COc1ccc(C(=O)NC(CC(C)C)C(=O)N[C@@H]2CCCN(S(C)(=O)=O)CC2=O)cc1OC (stereo partly drawn) [Example 113]	7.8
CC(C)C[C@H](NC(=O)c1cc2ccccc2o1)C(=O)N[C@H]1CCCN(S(=O)(=O)c2ncc[nH]2)CC1=O [Example 41, Benzofuran-2-carboxylic acid {(S)-3-methyl-1-[1-(1H-imidazole-2-sulfonyl)-3-oxo-azepan-4-ylcarbamoyl]-butyl}amide]	2.9
CC(C)C[C@H](NC(=O)c1nc(-c2ccccc2)oc1C(F)(F)F)C(=O)NC1CCCN(S(=O)(=O)c2ccccn2)CC1=O (stereo partly drawn) [Example 72, 2-Phenyl-5-trifluoromethyl-oxazole-4-carboxylic acid {(S)-3-methyl-1-[3-oxo-1-(pyridine-2-sulfonyl)-azepan-4-ylcarbamoyl]-butyl}amide]	9.9
